According to patent publication EP1019422B1, “PHOSPHINE-SUBSTITUTED COBALTICINIUM SALTS, PRODUCTION THEREOF, AND USE OF THE SAME AS CONSTITUENTS OF CATALYSTS” (Celanese Chemicals Europe GmbH, priority 1997, dated 1999):

Experiment: Solubility properties of the compounds (Table 1)
Format: physicochemical
Settings: for Löslichkeitseigenschaften: qualitative, solvents named in the cell
Source text: In Tabelle 1 sind die erfindungsgemäßen Verbindungen bezüglich ihrer Farbe/Konsistenz und bezüglich ihrer Löslichkeitseigenschaften zusammengestellt.

| Compound | Löslichkeitseigenschaften | Löslichkeit in Wasser (water, in contrast to the other compounds of formula I and the known hexafluorophosphate) |
| --- | --- | --- |
| 1,1'-Bis(diphenylphosphino)cobalticinium Tetrafluoroborat [Beispiel 1] | löslich in Methylenchlorid, Nitro-methan, Methanol und Aceton | – |
| 1,1'-Bis(diphenylphosphino)cobalticinium Tosylat [Beispiel 4] | löslich in Methylenchlorid, Methanol, Aceton, Nitromethan | – |
| 1,1'-Bis(diphenylphosphino)cobalticinium Trifluoracetat [Beispiel 6] | löslich in Methylenchlorid, Aceton, Methanol, Nitromethan | – |
| 1,1'-Bis(diphenylphosphinoindenyl)-cobalticinium-Tetrafluoroborat [Beispiel 8] | löslich in Methylenchlorid | – |
| C1=CC(P(c2ccccc2)c2ccccc2)C=C1.[Co+2].[F][Sb-]([F])([F])([F])([F])[F].c1ccc(P(c2ccccc2)[c-]2cccc2)cc1 [Beispiel 2, 1,1'-Bis(diphenylphosphino)cobalticinium Hexafluoroantimonat] | löslich in Methylenchlorid, Nitromethan, Methan und Aceton | – |
| C1=CC(P(c2ccccc2)c2ccccc2)C=C1.O=[N+]([O-])[O-].[Co+2].c1ccc(P(c2ccccc2)[c-]2cccc2)cc1 [Beispiel 3, 1,1'-Bis (diphenylphosphino)cobalticinium Nitrat] | löslich in warmem Wasser | gute Löslichkeit in Wasser |
| C1=CC(P(c2ccccc2)c2ccccc2)C=C1.O=S(=O)([O-])C(F)(F)F.[Co+2].c1ccc(P(c2ccccc2)[c-]2cccc2)cc1 [Beispiel 5, 1,1'-Bis(diphenylphosphino)cobalticinium Triflat] | löslich in Methylenchlorid, Aceton, Nitromethan, Methanol | – |
| C1=CC(P(c2ccccc2)c2ccccc2)C=C1.[Co+2].c1ccc(P(c2ccccc2)[c-]2cccc2)cc1.c1ccc([B-](c2ccccc2)(c2ccccc2)c2ccccc2)cc1 [Beispiel 7, 1,1'-Bis(diphenylphosphino)cobalticinium Tetraphenylborat] | löslich in Methylenchlorid | – |
